Test results: US11649245B2, “Cyclopropylamine compound as LSD1 inhibitor and use thereof” (HELIOEAST PHARMACEUTICAL CO., LTD., priority 2018, dated 2023)
Counter-ions that a name gives are not always drawn.

Key:
HL60 cells = experiment: Antiproliferation activity on HL60 cells (CellTiter-Glo, 6 days); assay type: cell-based; conditions: incubated for 6 days
Description: Experimental purpose: to detect the antiproliferation activity of the compound to be tested on HL60 cells.
(§1) Experimental materials: RPMI-1640 culture medium, fetal bovine serum, penicillin/streptomycin antibiotics purchased from Wisent. CellTiter-Glo (chemiluminescent cell viability assay reagent) reagents purchased from Promega. HL60 cell line purchased from Nanjing Cobioer Co., Ltd. Nivo multi-label reader (PerkinElmer).
Experimental method: HL60 cells were planted in a white 384-well plate, 40 μL of cell suspension per well, 600 HL60 cells were contained therein. The cell plate was placed in a carbon dioxide incubator for overnight culture. The compounds to be tested were diluted 5-fold with a pipet until the 10th concentration, i.e., diluted from 2 mM to 1.024 nM, double duplicate well experiment was set. 78 μL of the culture medium was added to an intermediate plate, and then 2 μL per well of the serially diluted compounds were transferred to the corresponding positions on the intermediate plate, after mixing, 10 μL per well was transferred to the cell plate. The cell plate was incubated in a carbon dioxide incubator for 6 days. Another cell plate was prepared and the signal value on the day of dosing was read as the maximum value (Max value in the equation below) to participate in the data analysis. 20 μL of chemiluminescent cell viability assay reagent was added to each well of this cell plate, which was incubated at room temperature for 10 minutes to stabilize the luminescence signal. The multi-label reader was used for reading.
(§2) Data analysis: the equation (Sample-Min)/(Max-Min)*100% was used to convert the original data into the inhibition rate, the IC50 value can be obtained by curve fitting of four-parameters (“log(inhibitor) vs. response—Variable slope” mode in GraphPad Prism)).

[1] = system: MC38 mouse colon cancer transplanted tumor model; experiment: In vivo pharmacodynamic study on MC38 mouse colon cancer transplanted tumor model; design: species or system C57BL/6 mice; conditions: compound 6 hydrochloride 1.5 mg/kg oral once a day, PD-1 mAb 5 mg/kg i.p. twice a week
Procedure: The purpose of this experiment was to evaluate the in vivo efficacy of the compounds of the present disclosure on MC38 mouse colon cancer transplanted tumor model.
Name: MC38 (Mouse Colon Cancer Cell)
Cell culture: 1640 medium containing 10% fetal bovine serum was used as culture medium, and the culture condition was 37° C., 5% carbon dioxide. The passage ratio was 1:2 to 1:3, the passage was performed 2-3 times per week.
0.1 mL (2×10^5 cells) of cells were subcutaneously inoculated into the right back of each mouse. On the same day, the animals were randomly grouped according to their body weight. […]
The experimental indicator is to investigate whether the tumor growth was inhibited, delayed or cured. Tumor diameters were measured with a vernier caliper twice a week. The tumor volume was calculated by the formula: V=0.5a×b^2, a and b respectively represent the long and short diameters of the tumor.
The efficacy of the compound was evaluated by relative tumor growth rate T/C (%). […] The relative tumor volume (RTV) was calculated based on the results of tumor measurement, the calculation formula was: RTV=Vt/V0, wherein V0 was the average tumor volume measured at the time of grouping administration (i.e., do), Vt is the average tumor volume measured at a single time, TRTV and CRTV were calculated from the data on the same day.

MV-4-11 cells = experiment: Antiproliferation activity on MV-4-11 cells (CellTiter-Glo, 6 days); assay type: cell-based; conditions: incubated for 6 days
Description: Experimental purpose: to detect the antiproliferation activity of the compound to be tested on MV-4-11 cells.
as §1, with “IMDM” for “RPMI-1640”, “MV-4-11” for “HL60”, “line was” for “line”, “Multi-Marker Analyzer” for “multi-label reader”
Experimental method: MV-4-11 cells were planted in a white 96-well plate, 80 μL of cell suspension per well, which contained 6000 MV-4-11 cells. The cell plate was placed in a carbon dioxide incubator for overnight culture.
The compounds to be tested were diluted 5-fold with a pipet until the 8th concentration, i.e., diluted from 2 mM to 25.6 nM, double duplicate well experiment was set. 78 μL of the culture medium was added to an intermediate plate, and then 2 μL per well of the serially diluted compounds were transferred to the corresponding positions on the intermediate plate, after mixing, 20 μL per well was transferred to the cell plate. The cell plate was incubated in a carbon dioxide incubator for 6 days. Another cell plate was prepared and the signal value on the day of dosing was read as the maximum value (Max value in the equation below) to participate in the data analysis. 25 μL of the chemiluminescent cell viability assay reagent was added to each well of this cell plate, which was incubated at room temperature for 10 minutes to stabilize the luminescence signal. The multi-label analyzer was used for reading.
as §2

`O=C(O)c1ccc(CN2CCC3(CC2)CC(N[C@@H]2C[C@H]2c2ccccc2)CO3)cc1` (stereo partly shown) [Hydrochloride of the compound 6] was tested, and the IC50 (HL60 cells) was 14.7 nM, the “Tumor volume (28th day)” value ([1]; C57BL/6 mice, 28th day after administration) was 1653 ± 893 mm^3 and the T/C ([1]; relative tumor growth rate, 28th day) was 92%. The IC50 (MV-4-11 cells) was 3.21 nM.
